Values quoted from earlier work, collected in patent publication US20100048397A1, “GABA/Pesticidal Combinations” (priority 2008, published 2010).

Tests used:
leek seed = details: seed treatment, compared with seed treated with fipronil
[1] = tested on: greenhouse-grown cucumber plants; details: in vivo
[2] = tested on: greenhouse-grown tomato plants; details: in vivo

SMILES: O=[N+]([O-])NC1=NCCN1Cc1ccc(Cl)nc1 [imidacloprid, (E)-1-(6-chloro-3-pyridylmethyl)-N-nitroimidazolidin-2-ylideneamine]
- phytotoxicity, germination rate (leek seed): delayed germination rates
- phytotoxicity at lowest rate [1]: caused phytotoxicity symptoms
- phytotoxicity at lowest rate [2]: caused phytotoxicity symptoms
